Experimental findings from patent publication US20220288114A1, “MULTI-AGENT OCULAR FORMULATIONS AND TREATMENT METHODS” (University of Utah Research Foundation, priority 2019, published 2022) are described below.

For one experiment, the system named is guinea pigs. Description: Refractive error by streak retinoscopy in guinea pigs, 60-day atropine eye drop treatment. It counts as in vivo. Conditions: .001% eye drops 2 times per day for approximately 60 days.
Experiment [1] relates to LNL crosslinks in rabbit cornea. Conditions: rabbits; 0.15 mg/ml eye drops twice a day for 6 weeks; LC-MS.
Description: After six weeks each group of corneas is dissected, weighed and used for LNL analysis. Samples are reduced with NaBH4 at room temperature then washed twice with water, dried, and hydrolyzed with 6N
HCl in vacuo for 18 hours at 110° C. […] The hydrolysates are dried to evaporate HCL, reconstituted with H2O, and re-dried to remove residual HCl. Post hydrolysis, cross-link enrichment is carried out using a cellulose mini-column method. Samples are then provided for LNL analysis by mass spectroscopy (LC/MS).
To perform liquid chromatography/mass spectroscopy (LC/MS), 1 μL of 100 μg/mL d9-Lysine is added to all samples as an internal standard. A calibration curve is created using serial dilution. Semi-quantitative mass spectral analysis is performed using a Sciex 6500 Q-Trap (Sciex, Farmington, MA). A helicon iHILIC-Fusion 2.1×100 mm column (Umeå, Sweden) is used for chromatography using 10 mM NH4OAc (Buffer A) and ACN (Buffer B). LC/MS is performed in the positive mode with a TurboIon source using optimized source conditions. Quantitative data analysis is conducted using Sciex MultiQuant software.
Another experiment has as its system rabbits. The following applies: 0.15 mg/ml eye drops 2 times per day for approximately 60 days. The protocol: Treatment using 0.15 mg/ml copper sulfate pentahydrate in an ophthalmic vehicle is administered at approximately 6 weeks of age to rabbits. Eyedrops are administered 2 times per day for approximately 60 days. Refractive error is measured by an ophthalmologist prior to treatment on day 1 and at subsequent time-points (e.g., 14 days, 27 days, 44 days, and 62 days after the beginning of treatment) depicted in FIG. 3. […] Stable refractive errors are typically obtained after 15 minutes when there is no pupil response. FIG. 3 presents refractive error measurements for the test subjects in each eye.

A further experiment has as its system cornea. The following applies: rabbits. An excerpt:
The Ocular Response Analyzer (ORA; Reichert, Inc, Buffalo, N.Y.) is a commercially available noncontact tonometer that also assesses the viscoelastic nature of the cornea with bidirectional detection of applanation events to allow in vivo measurements of corneal biomechanical response parameters under air puff loading 42. The system includes an infrared emitter and detector aligned such that applanation produces a spike on the detector with a mirror like reflection from the flattened corneal surface.
Two applanation pressure measurements are reported by the ORA: one while the cornea moves inward, reaching first applanation, at pressure P1, and the other after the cornea recovers from a slight concavity as it moves outward passing through a second applanation at pressure P2. Therefore, these two values, P1 and P2, indicate the pressures associated with a flattened cornea during the loading and unloading cycle, with P2<P1 for a valid measurement. The difference between P1 and P2 is termed corneal hysteresis (CH).
A greater value for Peak 1 or Peak 2 indicates a larger area of applanation which is associated with a stiffer response. Thus, for the current study the
ORA pressure and applanation signals were analyzed using custom software to determine the magnitudes of Peak 1 and Peak 2. ORA measurements were assessed at baseline and every week for 6-8 weeks on the same set of rabbits described in 2.4.b which included 4 groups Sol A, Sol B, and vehicle and no drops. An increase in Peak 1 and Peak 2 can be present after stiffening; therefore, one-tailed t-tests were used for statistical analysis to compare groups.
The times at 3, 4, 5, and 6 weeks for the combined AB (treatment Sol A and treatment Sol B) treatment group were averaged for comparison against no therapy and vehicle. Peak 1 and Peak 2 were compared to both controls.

Description for guinea pigs: Treatment using .001% atropine sulfate monohydrate eye drops is administered at approximately 1 week of age to guinea pigs. The eye drops are administered 2 times per day for approximately 60 days. Refractive error is measured by an ophthalmologist prior to treatment on day 1 and at subsequent time-points (e.g., 14 days, 27 days, 44 days, and 62 days after the beginning of treatment) depicted in FIGS. 1A-1C. […] Stable refractive errors are typically obtained after 15 minutes when there is no pupil response.

As to `CN1[C@@H]2CC[C@H]1CC(OC(=O)C(CO)c1ccccc1)C2.CN1[C@@H]2CC[C@H]1CC(OC(=O)C(CO)c1ccccc1)C2.O.O=S(=O)(O)O` (some centres unmarked) [Atropine, atropine sulfate monohydrate], in the experiment with guinea pigs, the “Progression of myopia (refractive error)” value is “Slows Progression of Myopia”.

On to `O.O.O.O.O.O=S(=O)([O-])[O-].[Cu+2]` [copper sulfate pentahydrate], for which the “LNL crosslinks in treated rabbit cornea compared to control (no treatment) and vehicle group” value in experiment [1] is given as “significant increases”. The “Reduction of myopic progression in the treatment eye compared to control” value in the experiment on rabbits is “approximately 63%”.

Turning to `O=S(=O)([O-])[O-].[Cu+2]` [Copper sulfate], in the experiment on cornea (ORA), the “Corneal stiffening in vivo as measured by waveform response to air puff deformation” value is “generates stiffening in vivo”. Further, in the experiment with cornea (weeks 3, 4, 5 and 6 averaged, combined Sol A and Sol B, one-tailed t-test p=0.0244), the “Peak 1, treated group AB versus no therapy” value is “significantly greater than no therapy”. For the same molecule, the “Peak 2, treated group AB versus vehicle” value with cornea (weeks 3, 4, 5 and 6 averaged, combined Sol A and Sol B, p<0.0001) is reported as “significantly greater”. In addition, the “Peak 2, treated group AB versus no therapy” value in the experiment on cornea (weeks 3, 4, 5 and 6 averaged, combined Sol A and Sol B, p=0.0098) is given as “significantly greater than no therapy”. The “Peak 1, treated group AB versus vehicle” value in the experiment with cornea (weeks 3, 4, 5 and 6 averaged, combined Sol A and Sol B, p=0.0763) is given as “no substantial difference”.
